Measured values published in patent US20080108677A1, “Thioxothiazolidinone Compounds For Use As Pharmaceuticals” (Karyon-CTT Ltd, priority 2004, published 2008).
Blank lines part the entries; values can stand above or below the compound they belong to.

Columns and labels:
OCI-AML-3 cells [1] = assay: OCI-AML-3 transwell migration on fibrinogen; format: cell-based; conditions: 25 μM, 40 nM PDBu
Experimental: (§1) Cell adhesion and migration. Cell adhesion was performed as described (Koivunen et al., 2001). Briefly, THP-1 cells (50 000/well) were stimulated with 50 nM PDBu (4β-phorbol-12,13-dibutyrate, SigmaAldrich) and allowed to bind to the fibrinogen coated microtiter wells (10 μg/ml) in the presence or absence of compounds or DMSO in serum-free RPMI medium containing 0.1% BSA. Non-adherent cells were removed by gentle washing with PBS or 2.5 mM EDTA in PBS, and adherent cells were quantitated with a phosphatase assay (Koivunen et al., 2001). Alternatively, THP-1 cells were stimulated with 20 nM PDBu and allowed to adhere on uncoated plastic overnight. Nonadherent cells were removed by washing with PBS followed by six washes with 2.5 mM EDTA in PBS. Cell migration was done using transwells (5 μm pore size) coated with 40 μg/ml LLG-C4-GST or fibrinogen (Koivunen et al., 2001). THP-1 and OCI-AML-3 cells (50 000 cells/100 μl) were allowed to migrate overnight in 10% FBS/RPMI medium in the presence or absence of peptides or compounds and stimulating cell migration with 40 nM PDBu. Gelatinase-selective inhibitor I (InhI) at a 50 μM concentration (Calbiochem) was used to evaluate the level of gelatinase-dependent migration on fibrinogen. Migrated cells were stained with crystal violet and counted (Koivunen et al., 2001). […]

[2] = system: OCI-AML-3 acute myeloid leukemia cells; assay: Cell viability/toxicity, OCI-AML-3; format: cell-based; conditions: 48 h, serum-containing medium, 50 μM, data not shown
Experimental: (§2) Cell culture. Human monocytic leukemia THP-1, OCI-AML-3 acute myeloid leukemia and human HT1080 fibrosarcoma cells were cultured as described (Koivunen et al., 1999; Koivunen et al., 2001; Stefanidakis et al., 2003). The cell viability was measured using an 3-[4,5-dimethylthiazol-2-yl]-2,5-diphenyl tetrazolium bromide assay as described (Bjorklund et al., 2004).
(§3) We next evaluated the ability of DDGW peptide and the chemicals to compete with antibody binding to immobilized αM I domain-GST fusion. […] The epitope of this antibody is located in the β2 I-like domain (FIG. 4B). […] Before conducting cell-based experiments, we tested possible toxicity of the chemicals. The compounds were incubated with THP-1 monocytic leukemia and OCI-AML-3 acute myeloid leukemia cells for 48 h in serum-containing cell culture medium.

[3] = system: THP-1 monocytic leukemia cells; assay: Cell viability/toxicity, THP-1; format: cell-based, Human; conditions: 48 h, serum-containing medium, 50 μM, data not shown
Experimental: as §2, §3

THP-1 cells [4] = assay: THP-1 transwell migration on LLG-C4-GST coating; format: cell-based, Human
Experimental: Cell adhesion and migration. Cell adhesion was performed as described (Koivunen et al., 2001). Briefly, THP-1 cells (50 000/well) were stimulated with 50 nM PDBu (4β-phorbol-12,13-dibutyrate, SigmaAldrich) and allowed to bind to the fibrinogen coated microtiter wells (10 μg/ml) in the presence or absence of compounds or DMSO in serum-free RPMI medium containing 0.1% BSA. Non-adherent cells were removed by gentle washing with PBS or 2.5 mM EDTA in PBS, and adherent cells were quantitated with a phosphatase assay (Koivunen et al., 2001). Alternatively, THP-1 cells were stimulated with 20 nM PDBu and allowed to adhere on uncoated plastic overnight. Nonadherent cells were removed by washing with PBS followed by six washes with 2.5 mM EDTA in PBS. Cell migration was done using transwells (5 μm pore size) coated with 40 μg/ml LLG-C4-GST or fibrinogen (Koivunen et al., 2001). THP-1 and OCI-AML-3 cells (50 000 cells/100 μl) were allowed to migrate overnight in 10% FBS/RPMI medium in the presence or absence of peptides or compounds and stimulating cell migration with 40 nM PDBu. Gelatinase-selective inhibitor I (InhI) at a 50 μM concentration (Calbiochem) was used to evaluate the level of gelatinase-dependent migration on fibrinogen. Migrated cells were stained with crystal violet and counted (Koivunen et al., 2001). Migration of HT1080 cells on serum coated transwells was conducted as described (Koivunen et al., 1999).

THP-1 cells [5] = assay: THP-1 transwell migration on fibrinogen; format: cell-based, Human; conditions: 25 μM, 40 nM PDBu
Experimental: as §1

αM I domain = biological target: T1, αM I domain (Homo sapiens, UniProt P11215); assay: Inhibition of antibody binding to immobilized αM I domain-GST fusion; conditions: for inhibition at 50 µM: read-out: inhibition of mAb LM2/1 binding
T1 construct: immobilizing 20 ng/well recombinant αM I domain-GST fusion in 96-well plates
Experimental: (§4) Inhibition of antibody binding to the integrins. The αM I domain or purified αMβ2 integrin (50 ng/well) were coated on microtiter wells followed by saturation of the wells with 1% BSA in PBS/0.05% Tween20. The DDGW peptide or the compounds at concentrations indicated were preincubated for 30 minutes with the integrin, followed by addition of the antibodies LM2/1, MEM170, OKM-10, IB4 or a control IgG at a 1 μg/ml final concentration. The antibodies LM2/1 and MEM170 recognize the αM integrin I domain, whereas the epitope for OKM-10 is located outside the αM I domain (Koivunen et al., 2001; Li et al., 1995; Stefanidakis et al., 2003). The antibodies were incubated for 45 minutes followed by detection of the bound antibodies with a peroxidase conjugated anti-mouse antibody.

OCI-AML-3 cells [6] = assay: Pericellular gelatinase-dependent uPAR cleavage; format: cell-based; conditions: 20 μM; PDBu stimulated; 48 hours
Experimental: Cellular cleavage of the urokinase-plasminogen activator receptor. Pericellular gelatinase-dependent uPAR cleavage was performed as described (Bjorklund et al., 2004). Briefly, OCI-AML-3 cells were stimulated with PDBu or left untreated and cultured for 48 hours in the presence of 20 μM IMB-10, the gelatinase-selective inhibitor (InhI) or vehicle (DMSO). uPAR and the cleaved form of uPAR D2+3 was detected with western blotting using a polyclonal antibody to uPAR (399R, American Diagnostica).

THP-1 cells [7] = assay: THP-1 adhesion to uncoated plastic; format: cell-based, Human; conditions: 20 nM PDBu; 25 μM compounds; overnight
Experimental: as §1

αMβ2 integrin = αMβ2 integrin (Homo sapiens, UniProt P11215); assay: Inhibition of antibody binding to purified αMβ2 integrin; conditions: 25 μM; epitope in β2 I-like domain
Experimental: as §4

αM I domain-GST fusion = biological target: T2, αM I domain-GST fusion (Homo sapiens, UniProt P11215); assay: DDGW-phage binding competition assay; conditions: dilution series 10 μM to 150 nM; mean of three independent experiments; read-out: IC50 for the inhibition of DDGW-phage binding to the αM I domain
T2 construct: immobilizing 20 ng/well recombinant αM I domain-GST fusion in 96-well plates
Experimental: Screening of the compound library. A combinatorial library of 10 000 small molecules was purchased from ChemBridge (San Diego, Calif.). A competition assay with the DDGW peptide bearing phage was set up by immobilizing 20 ng/well recombinant αM I domain-GST fusion in 96-well plates (Michishita et al., 1993). The compounds were used in pools comprising eight compounds, each at a 5 μM concentration and DMSO at a 1.25% concentration. After preincubation of the compounds in the wells, DDGW phage was added (3×10^8 transducing units/well). As controls, soluble DDGW peptide and a control peptide, and an unrelevant phage were included in every plate. Phage binding was detected with an anti-phage antibody as described (Bjorklund et al., 2004). Pools with inhibitory activity were re-tested as single compounds. The DDGW-phage inhibiting activity of these hits at a 10 μM concentration is shown in supplementary data. To calculate the IC50 values for the compounds, dilution series from the DDGW peptide and compounds were made (10 μM to 150 nM) and DDGW phage binding was measured. No inhibitor (DMSO as a vehicle) was used as 100% binding after subtracting the background value obtained with an irrelevant control phage.

αL I domain = biological target: T3, αL I domain (Homo sapiens, UniProt P20701); assay: Antibody binding to αL I domain
T3 sequence (P20701 156-327 limits assumed): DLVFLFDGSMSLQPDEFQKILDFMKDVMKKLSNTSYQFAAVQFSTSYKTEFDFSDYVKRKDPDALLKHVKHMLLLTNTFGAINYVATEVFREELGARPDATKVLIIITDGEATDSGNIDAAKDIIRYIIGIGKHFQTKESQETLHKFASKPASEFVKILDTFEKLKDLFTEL

THP-1 cells [8] = assay: THP-1 adhesion to fibrinogen; format: cell-based, Human
Experimental: as §1

[9] = system: HT1080 fibrosarcoma cells; assay: HT1080 migration on serum coated transwells; format: cell-based, human
Experimental: as §1

αM I domain / proMMP-9 = biological target: T4, αM I domain / proMMP-9 (Homo sapiens, UniProt P11215); assay: proMMP-9 binding to the αM integrin I domain; conditions: 10 μM
T4 construct: Soluble αM integrin I domain-GST fusion (2.5 μg/ml) was added; made in house
Experimental: proMMP-9 and fibrinogen binding to the αM integrin I domain. […] The resulting MMP-9 with this mutation is structurally identical to the wild type protein (Rowsell et al., 2002). ProMMP-9-ΔHC-E^402Q, intact proMMP-9 or fibrinogen (100 ng/well) was coated on microtiter wells in TBS followed by saturation of the wells with 1% BSA in PBS/0.05% Tween20. Soluble αM integrin I domain-GST fusion (2.5 μg/ml) was added in the presence or absence of peptides or compounds in 0.1% BSA/TBS/0.05% Tween20/1 mM CaCl2/1 mM MgCl2, and incubated for one hour. In some experiments 10 mM CaCl2 or 10 mM MgCl2 were used instead of 1 mM CaCl2/1 mM MgCl2. Bound GST fusion was detected with anti-GST antibody (1:2000 dilution) and peroxidase-conjugated anti-goat antibody (1:2000 dilution).

[10] = system: leukocytes emigrated into the peritoneum; assay: Thioglycollate-induced peritonitis, leukocyte emigration in vivo; design: species or system mice; conditions: i.v.
Experimental: Neutrophil emigration in vivo. The mouse experiments were approved by the ethical committee for the animal experiments at the University of Helsinki. Inflammation was induced in BALB/cOlaHsd female maintained in the Viikki Laboratory Animal Centre by injecting 1 ml 4% thioglycollate broth in PBS i.p. followed by intravenous injections of chemicals (200 μl at a 20, 5 or 1 μg/ml concentration) or PBS after five minutes. Cells emigrated in the peritoneum after 3 or 24 h were counted using a hemocytometer. Statistical significance between groups in the peritonitis model was calculated with one-way ANOVA and found differences were analyzed by Bonferroni pairwise multiple comparison tests. Results with p<0.01 were deemed significant.

SMILES: CCN1C(=O)/C(=C\c2ccc(OCCCOc3cc(C)cc(C)c3)c(OC)c2)SC1=S [IMB-2, (E)-5-(4-(3-(3,5-dimethylphenoxy)propoxy)-3-methoxybenzylidene)-3-ethyl-2-thioxothiazolidin-4-one]
inhibition of migration on fibrinogen-coated transwells (OCI-AML-3 cells [1]): less active
toxicity / effect on cell proliferation [2]: no significant effect
toxicity / effect on cell proliferation [3]: no significant effect
inhibition of cell migration on LLG-C4-GST (THP-1 cells [4]; 25 μM): did not siginificantly inhibit cell migration
inhibition of cell migration on LLG-C4-GST (THP-1 cells [4]; 100 μM, not shown): became inhibitory
inhibition of migration on fibrinogen-coated transwells (THP-1 cells [5]): less active

inhibition at 50 µM (αM I domain): 75%
SMILES: O=C1/C(=C/c2ccc(-c3cccc([N+](=O)[O-])c3)o2)SC(=S)N1Cc1ccccc1 [IMB-6, (Z)-3-benzyl-5-((5-(3-nitrophenyl)furan-2-yl)methylene)-2-thioxothiazolidin-4-one]
toxicity / effect on cell proliferation [2]: toxic
toxicity / effect on cell proliferation [3]: toxic

inhibition at 50 µM (αM I domain): 75%
inhibition of mAb IB4 binding to purified αMβ2 (αMβ2 integrin): inhibited
IC50 (αM I domain-GST fusion): 400 ± 200 nM
binding of TS1/22 and MEM83 antibodies to αL I domain (αL I domain): similarly affected
αM I domain binding to proMMP-9-E402Q-ΔHC (αM I domain / proMMP-9; 10 mM Ca2+): nearly completely antagonized
αM I domain binding to proMMP-9-E402Q-ΔHC (αM I domain / proMMP-9; 10 mM Mg2+): strong binding
αM I domain binding to proMMP-9-E402Q-ΔHC (αM I domain / proMMP-9; equimolar Ca2+ and Mg2+): intermediate
SMILES: Cc1ccccc1N1C(=O)/C(=C/C=C/c2ccccc2)SC1=S [IMB-10, (5Z)-5((E)-3-phenylallylidene)-2-thioxo-3-o-tolylthiazolidin-4-one]
inhibition of uPAR cleavage (uPAR D2+3 form) (OCI-AML-3 cells [6]): could not be inhibited
adhesion to plastic after washing with 2.5 mM EDTA (THP-1 cells [7]): resisted detachment and remained adherent
inhibition of migration on fibrinogen-coated transwells (OCI-AML-3 cells [1]): completely inhibited migration
adhesion to fibrinogen after washings with EDTA (THP-1 cells [8]; 50 nM PDBu, 25 μM, 2.5 mM EDTA): more resistant
cell adhesion in the absence of phorbol ester activation (THP-1 cells [8]; no phorbol ester, data not shown): did not increase cell adhesion
β2 integrin-independent migration of HT1080 cells [9]: no effect
number of leukocytes emigrated into the peritoneum ([10]; after 24 hours): still low
number of leukocytes emigrated into the peritoneum ([10]; three hours after induction): dose-dependent decrease
toxicity / effect on cell proliferation [2]: no significant effect
toxicity / effect on cell proliferation [3]: no significant effect
inhibition of cell migration on LLG-C4-GST (THP-1 cells [4]; 25 μM): potently inhibited cell migration
inhibition of migration on fibrinogen-coated transwells (THP-1 cells [5]): completely inhibited migration

effect on antibody binding (αM I domain; DDGW peptide 100 μM, chemical competitors 50 μM): only a marginal effect
SMILES: CC[C@H](C)C(=O)O[C@H]1C[C@@H](C)C=C2C=C[C@H](C)[C@H](CC[C@@H]3C[C@@H](O)CC(=O)O3)[C@H]21 [lovastatin, reference compound]
